Assay: relative permittivity at various frequencies (dimensionless)
Details: Liquid, Frequency=0.001 MHz, Coaxial cylinder capacitor

CCCCCCCC [octane]
Details | relative permittivity
303.07 K, 5010 kPa | 1.94148
303.07 K, 10050 kPa | 1.94875
303.07 K, 20060 kPa | 1.96184
303.07 K, 25030 kPa | 1.9682
333.25 K, 5040 kPa | 1.90899
333.25 K, 6780 kPa | 1.91211
333.25 K, 10020 kPa | 1.91777
333.25 K, 20050 kPa | 1.93287
333.25 K, 25050 kPa | 1.93989
373.16 K, 5040 kPa | 1.85755
373.16 K, 10030 kPa | 1.8684
373.16 K, 20030 kPa | 1.88737
373.16 K, 25060 kPa | 1.89562
398.17 K, 5010 kPa | 1.8243
398.17 K, 10010 kPa | 1.8374
398.17 K, 20050 kPa | 1.85955
398.17 K, 25040 kPa | 1.87023
